Assay results: patent US6818219B1, “Reagent for detecting and monitoring viral infections” (Institut Pasteur de Lille, priority 1997, dated 2004)

Tested on: anti-VCAp18 antibodies of EBV-positive sera
Experiment: Measurement of the binding affinity to the antibody (method of FRIGUET, ELISA inhibition by soluble VCAp18/SEQ ID No. 2)
Parameters: species or system human
Conditions: increasing concentrations of soluble peptide
Protocol: The specificity of the binding of the positive sera to the different mixotopes in solid phase is evaluated by the absorption of the antibodies by the native antigen VCAp18/SEQ ID No. 2 in solution, using the method of B. FRIGUET et al. (J. Immunol. Methods, 1985, 77, 305-319).
This method is based on the measurement of the free antibody concentration by an indirect ELISA method when the antigen VCAp18/SEQ ID No. 2 and the antibodies are in equilibrium in solution.
The antigen VCAp18/SEQ ID No. 2, at different concentrations (10^−10 M to 2×10^−6 M), is first incubated in solution (PBS-T buffer+2% BSA) with an EBV-positive serum, at a constant concentration (1/50) until the equilibrium state is reached. […]
After washing with PBS-T buffer, the bound immunoglobulins are detected by addition of peroxidase-coupled goat antibodies anti-human IgG-A-Ms.
This method gives the displacement curves for the A/Ao bond relative to log(ao). A precise estimation of the mean affinity of the serum containing the anti-VCAp18 antibodies is given by the equation Ao/(Ao−A)=1/ν=1+Kd/ao, in which ao is the total soluble antigen concentration, A and Ao are the absorbance values at 492 nm with or without blocking antigen, respectively, and ν is the bound antibody fraction, if the different conditions set out in FRIGUET et al. are satisfied.

## CAVDTGSGGGGQPHDTAPRGARKKQ [VCAp18/SEQ ID No. 2]
  inhibition of the binding of the human sera to the 3 mixotopes in solid phase: specifically and strongly inhibited
